Key:
sourgrass = experiment: Test D sourgrass; type: in vivo, Trichachne insularis; details: Preemergence, 0 to 100 scale, 0 no injury, 100 complete control
Description: Seeds, tubers, or plant parts of Alexandergrass (Brachiaria plantaginea), bermuda-grass (Cynodon dactylon), common pursiane (Portulaca oleracea), common ragweed (Ambrosia elatior), common groundsel (Senecio vulgaris), dallisgrass (Paspalum dilatatum), goosegrass (Eleusine indica), guineagrass (Panicum maximum), itchgrass (Rottboellia exaltata), Johnson grass (Sorghum halepense), large crabgrass (Digitaria sanguinalis), pitted morningglory (Ipomoea lacunosa), purple nutsedge (Cyperus rotundus), sandbur (Cenchrus echinatus), sourgrass (Trichachne insularis), Spanishneedles (Bidens bipinnata), surinam grass (Brachiaria decumbens) and tall mallow (Malva sylvestris) were planted into greenhouse pots of flats containing greenhouse planting medium. Plant species were grown in separate pots or individual compartments. Preemergence applications were made within one day of planting the seed or plant part.
Test chemicals were formulated in a non-phytotoxic solvent mixture which included a surfactant and applied preemergence to the surface of the pot containing seeds in a sandy loam soil. Untreated control pots and treated pots were placed in the greenhouse for growth and visually evaluated for injury 14 to 21 days after herbicide application. Plant response ratings, summarized in Table C, are based on a 0 to 100 scale where 0 is no injury and 100 is complete control. […]

soybean = experiment: Test C postemergence soybean; type: in vivo, Glycine max; details: 0 to 100 scale, 0 no effect, 100 complete control
Experimental: (§1) Compounds evaluated in this test were formulated in a non-phytotoxic solvent mixture which included a surfactant and applied to plants that were grown for various periods of time before treatment (postemergence application). A mixture of sandy loam soil and greenhouse potting mix in a 60:40 ratio was used for the postemergence test.
(§2) Plantings of these crops and weed species were adjusted to produce plants of appropriate size for the postemergence test. All plant species were grown using normal greenhouse practices. Crop and weed species include arrowleaf sida (Sida rhombifolia), barnyardgrass (Echinochloa crus-galli), cocklebur (Xanthium strumarium), common ragweed (Ambrosia elatior), corn (Zea mays), cotton (Gossypium hirsutum), eastern black nightshade (Solanum ptycanthum), fall panicum (Panicum dichotomiflorum), field bindweed (Convolvulus arvensis), giant foxtail (Setaria faberii), hairy beggarticks (Bidens pilosa), ivyleaf morningglory (Ipomoea hederacea), johnsongrass (Sorghum halepense), ladysthumb smartweed (Polygonum persicaria), lambsquarters (Chenopodium album), large crabgrass (Digitaria sanguinalis), purple nutsedge (Cyperus rotundus), redroot pigweed (Amaranthus retroflexus), soybean (Glycine max), surinam grass (Brachiaria decumbens), velvetleaf (Abutilon theophrasti) and wild poinsettia (Euphorbia heterophylla).
(§3) Treated plants and untreated controls were maintained in a greenhouse for approximately 14, to 21 days, after which all treated plants were compared to untreated controls and visually evaluated. Plant response ratings, summarized in Table C, were based upon a 0 to 100 scale where 0 was no effect and 100 was complete control. A dash response (−) means no test result.

common ragweed = experiment: Test C postemergence common ragweed; type: in vivo, Ambrosia elatior; details: 0 to 100 scale, 0 no effect, 100 complete control
Experimental: as §1, §2, §3

wild poinsettia = experiment: Test C postemergence wild poinsettia; type: in vivo, Euphorbia heterophylla; details: 0 to 100 scale, 0 no effect, 100 complete control
Experimental: as §1, §2, §3

windgrass = experiment: Test E windgrass; type: in vivo, Apera spica-venti; details: Preemergence
lambsquarters = experiment: Test E lambsquarters; type: in vivo, Chenopodium album; details: Preemergence
Russian thistle = experiment: Test E Russian thistle; type: in vivo, Salsola kali; details: Postemergence
Experimental: (§4) […] A mixture of sandy loam soil and greenhouse potting mix in a 60:40 ratio was used for the postemergence test.
(§5) Plantings of these crops and weed species were adjusted to produce plants of appropriate size for the postemergence test. All plant species were grown using normal greenhouse practices. Crop and weed species include annual bluegrass (Poa annua), blackgrass (Alopecurus myosuroides), black nightshade (Solanum nigra), chickweed (Stellaria media), common poppy (Papaver rhoeas), deadnettle (Lamium amplexicaule), downy brome (Bromus tectorum), field violet (Viola arvensis), galium (Galium aparine), green foxtail (Setaria viridis), Italian ryegrass (Lolium multiflorum), jointed goatgrass (Aegilops cylindrica), kochia (Kochia scoparia), lambsquarters (Chenopodium album), littleseed canarygrass (Phalaris minor), rape (Brassica napus), redroot pigweed (Amaranthus retroflexus), Russian thistle (Salsola kali), scentless chamomile (Matricaria inodora), spring barley (Hordeum vulgare), sugar beet (Beta vulgaris), sunflower (Helianthus annuus), ivyleaf speedwell (Veronica hederaefolia), spring wheat (Triticum aestivum), winter wheat (Triticum aestivum), wild buckwheat (Polygonum convolvulus), wild mustard (Sinapis arvensis), wild oat (Avena fatua), windgrass (Apera spica-venti) and winter barley (Hordeum vulgare).
(§6) Treated plants and untreated controls were maintained in a greenhouse for approximately 21 to 28 days, after which all treated plants were compared to untreated controls and visually evaluated. […] A dash response (-) means no test result.

scentless chamomile = experiment: Test E scentless chamomile; type: in vivo, Matricaria inodora; details: Postemergence
In short: (§7)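 For postemergence, plants at the 1- to 4-leaf stage, in a 60:40 mix of sandy loam and potting mix, treated with compound formulated in a surfactant-containing non-phytotoxic solvent. Visual assessment versus untreated controls followed roughly 21–28 days in the greenhouse.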

littleseed canarygrass = experiment: Test E littleseed canarygrass; type: in vivo, Phalaris minor; details: Postemergence
In short: as §7

annual bluegrass [1] = experiment: Test E annual bluegrass; type: in vivo, Poa annua; details: Postemergence
Experimental: Compounds evaluated in this test were formulated in a non-phytotoxic solvent mixture which included a surfactant and applied to plants that were in the 1- to 4-leaf stage (postemergence application). A mixture of sandy loam soil and greenhouse potting mix in a 60:40 ratio was used for the postemergence test.
as §5, §6

wild mustard = experiment: Test E wild mustard; type: in vivo, Sinapis arvensis; details: Postemergence
Experimental: as §4, §5, §6

annual bluegrass [2] = experiment: Test E annual bluegrass; type: in vivo, Poa annua; details: Preemergence
[3] = Rate 125 g/ha, 0 to 100 scale (0 no effect, 100 complete control)
[4] = Rate 500 g/ha, 0 to 100 scale where 0 is no effect and 100 is complete control
[5] = Rate 250 g/ha, 0 to 100 scale (0 no effect, 100 complete control)
[6] = Rate 500 g/ha, 0 to 100 scale, 0 no effect, 100 complete control
[7] = Rate 250 g/ha, 0 to 100 scale where 0 is no effect and 100 is complete control

Cc1cccc(C)c1-n1c(=O)on(C(=O)N(c2ccc(F)cc2)C(C)C)c1=O [Compound 18]
Plant response rating, Sourgrass (sourgrass; Rate 64 g/ha): 100

CCn1c(=O)on(C(=O)N(c2ccccc2)C(C)C)c1=O [Compound 117]
Plant response rating, Soybean (soybean; Rate 140 g/ha): 10 | Plant response rating, Soybean (soybean; Rate 280 g/ha): 35 | Plant response rating, Soybean (soybean; Rate 560 g/ha): 40 | Plant response rating, Soybean (soybean; Rate 1120 g/ha): 60 | Plant response rating Common ragweed (common ragweed; Rate 140 g/ha): 0 | Plant response rating Common ragweed (common ragweed; Rate 280 g/ha): 0 | Plant response rating Common ragweed (common ragweed; Rate 560 g/ha): 20 | Plant response rating Common ragweed (common ragweed; Rate 1120 g/ha): 50 | Plant response rating Wild poinsettia (wild poinsettia; Rate 140 g/ha): 0 | Plant response rating Wild poinsettia (wild poinsettia; Rate 280 g/ha): 0 | Plant response rating Wild poinsettia (wild poinsettia; Rate 560 g/ha): 0 | Plant response rating Wild poinsettia (wild poinsettia; Rate 1120 g/ha): 0

CC(C)N(C(=O)n1oc(=O)n(C(C)C)c1=O)c1ccc(Cl)cc1 [Compound 114]
Plant response rating, Windgrass (windgrass; [3]): 100 | Plant response rating, Windgrass (windgrass; [4]): 100 | Plant response rating, Lambsquarters (lambsquarters; [3]): 50 | Plant response rating, Lambsquarters (lambsquarters; Rate 250 g/ha, 0 to 100 scale): 100 | Plant response rating, Lambsquarters (lambsquarters; [4]): 100 | Plant response rating, Russian thistle (Russian thistle; Rate 125 g/ha, 0 to 100 scale): 0 | Plant response rating, Russian thistle (Russian thistle; [5]): 0 | Plant response rating, Russian thistle (Russian thistle; [6]): 0 | Plant response rating, Scentless chamo (scentless chamomile; Rate 125 g/ha, 0 to 100 scale): 0 | Plant response rating, Scentless chamo (scentless chamomile; [5]): 0 | Plant response rating, Scentless chamo (scentless chamomile; [6]): 0 | Plant response rating, LS canarygrass (littleseed canarygrass; Rate 125 g/ha, 0 to 100 scale): 0 | Plant response rating, LS canarygrass (littleseed canarygrass; [5]): 30 | Plant response rating, LS canarygrass (littleseed canarygrass; [6]): 60 | Plant response rating, Annual bluegras (annual bluegrass [1]; Rate 125 g/ha, 0 to 100 scale): 0 | Plant response rating, Annual bluegras (annual bluegrass [1]; [5]): 30 | Plant response rating, Annual bluegras (annual bluegrass [1]; [6]): 60 | Plant response rating, Wild mustard (wild mustard; Rate 125 g/ha, 0 to 100 scale): 75 | Plant response rating, Wild mustard (wild mustard; [5]): 50 | Plant response rating, Wild mustard (wild mustard; [6]): 70 | Plant response rating, Annual bluegras (annual bluegrass [2]; [3]): 50 | Plant response rating, Annual bluegras (annual bluegrass [2]; Rate 250 g/ha, 0 to 100 scale): 50 | Plant response rating, Annual bluegras (annual bluegrass [2]; [4]): 60

CC(C)N(C(=O)n1oc(=O)n(C(C)C)c1=O)c1ccc(F)cc1 [Compound 131]
Plant response rating, Soybean (soybean; Rate 140 g/ha): 20 | Plant response rating, Soybean (soybean; Rate 280 g/ha): 25 | Plant response rating, Soybean (soybean; Rate 560 g/ha): 30 | Plant response rating, Soybean (soybean; Rate 1120 g/ha): 45 | Plant response rating, Windgrass (windgrass; [3]): 100 | Windgrass plant response rating (0 to 100 scale) (windgrass; Rate 250 g/ha): 100 | Plant response rating, Windgrass (windgrass; [4]): 100 | Plant response rating, Lambsquarters (lambsquarters; [3]): 100 | Lambsquarters plant response rating (0 to 100 scale) (lambsquarters; Rate 250 g/ha): 100 | Plant response rating, Lambsquarters (lambsquarters; [4]): 100 | Plant response rating, Russian thistle (Russian thistle; Rate 62 g/ha, 0 to 100 scale): 10 | Plant response rating, Russian thistle (Russian thistle; Rate 125 g/ha, 0 to 100 scale): 0 | Plant response rating, Russian thistle (Russian thistle; [6]): 0 | Russian thistle plant response rating (Russian thistle; [7]): 0 | Plant response rating, Scentless chamo (scentless chamomile; Rate 62 g/ha, 0 to 100 scale): 55 | Plant response rating, Scentless chamo (scentless chamomile; Rate 125 g/ha, 0 to 100 scale): 0 | Plant response rating, Scentless chamo (scentless chamomile; [6]): 50 | Scentless chamo plant response rating (scentless chamomile; [7]): 20 | Plant response rating, Sourgrass (sourgrass; Rate 16 g/ha): 90 | Plant response rating Common ragweed (common ragweed; Rate 140 g/ha): 0 | Plant response rating Common ragweed (common ragweed; Rate 280 g/ha): 0 | Plant response rating Common ragweed (common ragweed; Rate 560 g/ha): 0 | Plant response rating Common ragweed (common ragweed; Rate 1120 g/ha): 0 | Plant response rating, LS canarygrass (littleseed canarygrass; Rate 62 g/ha, 0 to 100 scale): 50 | Plant response rating, LS canarygrass (littleseed canarygrass; Rate 125 g/ha, 0 to 100 scale): 0 | Plant response rating, LS canarygrass (littleseed canarygrass; [6]): 50 | LS canarygrass plant response rating (littleseed canarygrass; [7]): 20 | Plant response rating, Annual bluegras (annual bluegrass [1]; Rate 62 g/ha, 0 to 100 scale): 55 | Plant response rating, Annual bluegras (annual bluegrass [1]; Rate 125 g/ha, 0 to 100 scale): 40 | Plant response rating, Annual bluegras (annual bluegrass [1]; [6]): 70 | Annual bluegras plant response rating (annual bluegrass [1]; [7]): 40 | Plant response rating, Wild mustard (wild mustard; Rate 62 g/ha, 0 to 100 scale): 30 | Plant response rating, Wild mustard (wild mustard; Rate 125 g/ha, 0 to 100 scale): 0 | Plant response rating, Wild mustard (wild mustard; [6]): 30 | Wild mustard plant response rating (wild mustard; [7]): 0 | Plant response rating Wild poinsettia (wild poinsettia; Rate 140 g/ha): 0 | Plant response rating Wild poinsettia (wild poinsettia; Rate 280 g/ha): 10 | Plant response rating Wild poinsettia (wild poinsettia; Rate 560 g/ha): 30 | Plant response rating Wild poinsettia (wild poinsettia; Rate 1120 g/ha): 80 | Plant response rating, Annual bluegras (annual bluegrass [2]; [3]): 70 | Annual bluegras plant response rating (0 to 100 scale) (annual bluegrass [2]; Rate 250 g/ha): 80 | Plant response rating, Annual bluegras (annual bluegrass [2]; [4]): 100

Reference: patent US6737383B1, “Herbicidal oxadiazolidines” (priority 1999, dated 2004)
